# From publication PMC4773869, “Influence of plasma-activated compounds on melanogenesis and tyrosinase activity” (Scientific Reports, 2016)
# Like-named read-outs stand apart in the source and are kept apart here.
# Experiments:
# [1] = tested on: B16F10 cells; experiment: Cell morphology of melanoma cells (microscopy); assay type: cell-based, murine; conditions: 14-42 μg/ml, 24 hr, as-synthesized
# Protocol: For cell morphology, the melanoma cells were seeded in cell culture plates (SPL Korea) and incubated at 37 °C (5% CO2 atmosphere). The cells were then incubated with the various concentrations of 4b and 6a (0 (con), 14, 21, 28, 35, and 42 μg/ml) following 24 hr incubation. The cell morphology was accessed and images were captured using an inverted fluorescent microscope (Nikon, ECLIPSE, Ti).
# [2] = tested on: intracellular ROS in B16F10 cells; experiment: Intracellular ROS measurement (carboxy-H2DCFDA); assay type: cell-based, murine; conditions: for intracellular ROS level, PAED compared to ED: plasma-treated compound versus as-synthesized compound
# Protocol: Intracellular reactive oxygen species (ROS) were quantified using carboxy-H2DCFDA (5-(and 6)-carboxy-20,70-dichlorodihydrofluorescein diacetate), by monitoring the fluorescence intensity.
# Briefly, various concentrations of as-synthesized 4b and 6a or plasma-treated 4b and 6a were incubated with cells. After 24 hr, the cells were centrifuged for 5 min at 1000 rpm and the collected cell pellet was washed with PBS and labeled with carboxy-H2DCFDA dye following 30 min of incubation at 37 °C. The samples were centrifuged again and each pellet was mixed with 500 μl PBS. The 200 μl samples were then transferred in 96-well plates (black plate, clear bottom, corning incorporated USA) and fluorescence was measured at excitation/emission: 485/528 nm using a microplate reader.
# [3] = tested on: TRP1 expression in B16F10 cells; experiment: Western blot, TRP1 expression; assay type: cell-based, murine; conditions: 24 hr; for expression of TRP1 versus control: ED (as-synthesized); for expression of TRP1 versus ED: PAED (plasma-treated)
# Protocol: (§1) Melanoma cells were incubated with as-synthesized and plasma-treated 4b and 6a test compounds for 24 hr. Following incubation, treated and untreated cells were lysed in RIPA buffer (Cell Signaling Technology, USA), whole cell protein was extracted and subjected to electrophoresis in 12% SDS-PAGE, and blotted onto nitrocellulose membranes. The membrane was probed with the antibodies raised against MITF, tyrosinase and TRP1 (Abcam, USA). The bands were detected using Super Signal West Pico Chemiluminescent Substrate (Pierce, Rockford, IL, USA) and images were taken using a Vilver imaging system (Vilver, Upland, CA, USA).
# [4] = tested on: tyrosinase expression in B16F10 cells; experiment: Western blot, tyrosinase expression; assay type: cell-based, murine; conditions: 24 hr
# Protocol: as §1
# [5] = tested on: MITF expression in B16F10 cells; experiment: Western blot, MITF expression; assay type: cell-based, murine; conditions: 24 hr; for expression of MITF versus control: ED (as-synthesized); for expression of MITF versus ED: PAED (plasma-treated)
# Protocol: as §1
# [6] = molecular target: mushroom tyrosinase (Agaricus bisporus, UniProt C7FF04); experiment: Circular dichroism analysis of the secondary structure of mushroom tyrosinase; conditions: tyrosinase + as-synthesized compound (0 min plasma), 0.1 mM; for Turn % of tyrosinase: enzyme alone 7; for α-helix % of tyrosinase: enzyme alone 16; for β-sheet % of tyrosinase: enzyme alone 33; for Random coil % of tyrosinase: enzyme alone 44
# Protocol: The structural changes in tyrosinase after incubation with ED and PAED were plotted in Fig. 5. […] We observed that the control tyrosinase enzyme has 16% α-helix, 33% β-sheets, 7% turn, and 44% random coil. After the interaction with 4a, the amount of α-helix changed to 15% and β-sheets changed to 35%. On the other hand, after the plasma treatment of 4a the amount of α-helix changed to 17% and β-sheets changed to 31%. While, after interacting with 4b, the amount of α-helix is 16.0%, β-sheets 29%, turn 10%, and random coil is 45.0%. However, plasma-activated 4b interacts differently with tyrosinase enzyme, showing 16% α-helix, 33% β-sheets, 6% turn, and 45% random coil. When 6a ED interacted with tyrosinase enzyme, we observed 20% α-helix, 25% β-sheets, 11.0% turn, and 44% random coil. However, 6a PAED interacts with tyrosinase enzyme, the α-helix changed to 19%, β-sheets 28%, turn 9%, and random coil 44%. […] To obtain further detail on the interaction of the ED with tyrosinase enzyme, we studied the molecular docking. For the CD spectroscopic studies[65][66][67] a J-815 spectrophotometer (Jasco, Japan) was used, equipped with a Peltier system that controlled the temperature. (1S)-(+)-10-camphorsulfonic acid (Aldrich, Milwaukee, WI) with a molar extinction coefficient of 34.5 M/cm at 285 nm and a 2.36 M/cm molar ellipticity (θ) at 295 nm was used for the CD calibrations. The samples were pre-equilibrated at the desired temperature for 15 min, and the scan speed was fixed for adaptative sampling (error F 0.01) with a response time of 1 sec and a 1 nm bandwidth. The secondary structure of the mushroom tyrosinase was monitored by using a 1.0 cm path length cuvette. The mushroom tyrosinase (0.2 mg/ml) was prepared in phosphate buffer (20 mM) at pH 6.8 for CD analysis. We used the 0.1 mM concentration of all derivatives in 1 ml buffer solution, with or without 10 min plasma treatment. All spectra were collected in triplicate from 200 to 250 nm and the background was corrected against the buffer (blank). The percentages of secondary structures of proteins were calculated using inbuilt Jasco software.
# [7] = tested on: B16F10 cells; experiment: Intracellular melanin content measurement; assay type: cell-based, murine; conditions: for activity at 35 µg/mL: Mus musculus, B16-F10, 35 μg/ml, read-out: melanin content, % of control (100%); for melanin, % of control (normalized to 100%): as-synthesized ED, no α-MSH, concentration not given
# Protocol: Melanoma (1.5 × 10^5) cells were seeded in cell culture plates and allowed to attach for 24 hr. Then each eugenol derivative was added and tested separately for melanin activation after 24 hr of incubation. After incubation, cells were detached using trypsin/EDTA and centrifuged at 1000 rpm for 5 min to collect the cell pellets. The cell pellets were solubilized in 1N NaOH at 60 °C for 1 hr. The melanin content was measured spectrophotometrically at 405 nm wavelength using a microplate reader (BioTek, synergy HT)[56]. […] Plasma-treated and non-plasma-treated ED (4b and 6a) were added to the cells, pre-incubated with or without α-MSH (100 nM) for a further 24 hr and melanin content was assayed as described above. Kojic acid can inhibit and α-MSH can stimulate the melanin in the cells, therefore we used them as negative and positive controls.
# [8] = tested on: cAMP in B16F10 cells; experiment: Intracellular cAMP measurement (cAMP kit); assay type: cell-based, murine; conditions: for cAMP level: PAED (plasma-treated compound), compared with as-synthesized compound and control; for cAMP level compared to the control: as-synthesized compound, control: media only with cells
# Protocol: For cAMP measurement, the 4b and 6a were treated with plasma for 3, 5, and 10 min, and then added to the cells, pre-incubated with or without α-MSH (100 nM) for 24 hr. The cells were trypsinised and centrifuged to obtain the cell pellets. The cell pellet was lysed and the cAMP level was measured using a cAMP Kit (Abcam, USA) according to the manufacturer’s instructions.
# Chain of mushroom tyrosinase (C7FF04 2-392): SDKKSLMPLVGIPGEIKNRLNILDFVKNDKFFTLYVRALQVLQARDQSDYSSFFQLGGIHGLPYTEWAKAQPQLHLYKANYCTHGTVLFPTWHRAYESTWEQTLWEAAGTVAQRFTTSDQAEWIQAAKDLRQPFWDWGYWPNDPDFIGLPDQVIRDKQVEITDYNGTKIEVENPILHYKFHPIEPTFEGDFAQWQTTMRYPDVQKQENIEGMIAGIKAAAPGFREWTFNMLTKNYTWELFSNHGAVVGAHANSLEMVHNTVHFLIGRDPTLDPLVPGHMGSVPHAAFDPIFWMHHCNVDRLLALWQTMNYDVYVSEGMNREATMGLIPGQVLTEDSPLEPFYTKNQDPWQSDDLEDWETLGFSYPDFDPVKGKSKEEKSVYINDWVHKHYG
structure (smiles),measurement,setting,value
"C=CCc1ccc(OC(=O)COC(=O)c2ccc(O)cc2)c(OC)c1 [4b, 2-[2-methoxy-4-(prop-2-en-1-yl)phenoxy]-2-oxoethyl 4-hydroxybenzoate]",effect on cell morphology,[1],no effect on cell morphology
same,"intracellular ROS, comparison between compounds",[2]; independent of plasma treatment,higher intracellular ROS than 6a
same,"intracellular ROS level, PAED compared to ED",[2],higher intracellular ROS levels
same,expression of TRP1 versus control,[3],higher expression
same,expression of TRP1 versus ED,[3],more expression
same,cellular tyrosinase expression versus control,[4]; ED (as-synthesized),no change
same,cellular tyrosinase expression versus control,[4]; PAED (plasma-treated),no change
same,expression of MITF versus control,[5],higher expression
same,expression of MITF versus ED,[5],more expression
same,melting point,,81 to 83 °C
same,Turn % of tyrosinase,[6],10%
same,α-helix % of tyrosinase,[6],16.0%
same,α-helix % of tyrosinase,[6]; listed as 4b-0 min,16%
same,β-sheet % of tyrosinase,[6],29%
same,Random coil % of tyrosinase,[6],45.0%
same,Random coil % of tyrosinase,[6]; listed as 4b-0 min,45%
same,activity at 35 µg/mL,"[7]; after plasma treatment for 10 min, absence of α-MSH",143%
same,activity at 35 µg/mL,"[7]; as-synthesized, absence of α-MSH",125%
same,activity at 35 µg/mL,"[7]; as-synthesized, presence of α-MSH",156%
same,"melanin, % of control (normalized to 100%)",[7],126%
same,cAMP level,[8],enhanced even further
same,cAMP level compared to the control,[8],increased
"C=CCc1ccc(OC(=O)COC(=O)/C=C/c2ccc(O)cc2)c(OC)c1 [6a, 2-[2-methoxy-4-(prop-2-en-1-yl)phenoxy]-2-oxoethyl(2E)-3-(4-hydroxyphenyl)prop-2-enoate]",effect on cell morphology,[1],no effect on cell morphology
same,"intracellular ROS level, PAED compared to ED",[2],higher intracellular ROS levels
same,expression of TRP1 versus control,[3],higher expression
same,expression of TRP1 versus ED,[3],more expression
same,cellular tyrosinase expression versus control,[4]; ED (as-synthesized),no change
same,cellular tyrosinase expression versus control,[4]; PAED (plasma-treated),no change
same,expression of MITF versus control,[5],higher expression
same,expression of MITF versus ED,[5],more expression
same,melting point,,114 to 116 °C
same,Turn % of tyrosinase,[6],11.0%
same,Turn % of tyrosinase,[6]; listed as 6a-0 min,11%
same,α-helix % of tyrosinase,[6],20%
same,β-sheet % of tyrosinase,[6],25%
same,Random coil % of tyrosinase,[6],44%
same,"melanin, % of control (normalized to 100%)",[7],125%
same,cAMP level,[8],enhanced even further
same,cAMP level compared to the control,[8],increased
